# Assays:
# histamine H1 receptor = target: T1, histamine H1 receptor (Cavia porcellus, UniProt P31389); assay: Histamine-H1 receptor binding assay; settings: guinea pig cerebellum membranes, 0.7 nM [3H]-mepyramine, 30 min at 30° C.
# T1 construct: performed in guinea pig cerebellum membranes as described previously; from tissue; host or cells: guinea pig cerebellum membranes
# Method: (1) In vitro histamine H1 receptor binding assay, to measure the affinity of the compounds. […] Briefly, the membrane suspensions (160 μg/ml) were incubated at 30° C. with 0.7 nM [^3H]-mepyramine and different concentrations of the test compounds in a final volume of 250 μl. Binding reactions were terminated by filtration after 30 min of incubation and the bound radioactivity was determined. The non-specific binding was measured in the presence of 10 μM of promethazine. The affinity of each test compound to the receptor was determined by using at least six different concentrations run in duplicate. IC50 values were obtained by non-linear regression by use of SAS on a DEC AXP computer.
# [1] = test system: Histamine-induced skin vascular permeability in rats; assay: Histamine-induced skin vascular permeability in rats; assay type: in vivo; settings: Rattus norvegicus, 4 h; Male Wistar rats, oral, dose of 3 mg/Kg, four hours after administration, compared with vehicle treated group
# Method: Either one, four, eight or 24 hours later the rats were lightly anaesthetized with ether and a cutaneous reaction was induced by two intradermal injections of 50 μl of histamine (100 μg/ml) onto the back, followed by a intravenous injection of 3 ml/kg of Evan's Blue (5 mg/ml), both dissolved in saline. Sixty minutes later, the rats were killed by cervical dislocation and the back skin dissected free. The diameter (in millimetres) of the papule was measured in two directions and the area was calculated.
# T1 sequence (P31389 whole entry): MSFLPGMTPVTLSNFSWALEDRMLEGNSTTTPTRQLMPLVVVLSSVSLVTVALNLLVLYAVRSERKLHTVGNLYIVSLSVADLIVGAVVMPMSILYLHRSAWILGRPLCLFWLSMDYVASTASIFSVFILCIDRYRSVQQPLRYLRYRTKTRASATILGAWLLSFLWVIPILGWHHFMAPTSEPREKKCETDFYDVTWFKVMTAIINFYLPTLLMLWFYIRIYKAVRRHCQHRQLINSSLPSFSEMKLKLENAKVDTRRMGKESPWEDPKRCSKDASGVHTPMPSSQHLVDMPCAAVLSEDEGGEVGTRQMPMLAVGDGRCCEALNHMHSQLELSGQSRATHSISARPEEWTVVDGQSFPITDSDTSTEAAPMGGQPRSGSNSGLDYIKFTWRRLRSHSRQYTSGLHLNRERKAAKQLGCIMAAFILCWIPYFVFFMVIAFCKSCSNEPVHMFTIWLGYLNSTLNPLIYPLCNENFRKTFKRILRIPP
SMILES,IC50 (histamine H1 receptor) [nM],inhibition in vivo at 3 mg/kg [1] [%]
"CCOCCn1cc(C2CCN(CCOc3cc(OC)ccc3C(=O)O)CC2)c2cccnc21 [Example 36, 2-(2-{4-[1-(2-ethoxyethyl)-1H-pyrrolo[2,3-b]pyridin-3-yl]-piperidin-1-yl}-ethoxy)-4-methoxybenzoic acid]",160,> 50
"O=C(O)c1cccc(CN2CCC(c3cn(Cc4ccoc4)c4ncccc34)CC2)c1 [Example 2, 3-[4-(1-furan-3-ylmethyl-1H-pyrrolo[2,3-b]pyridin-3-yl)piperidin-1-ylmethyl]benzoic acid]",560,> 50
"COCCn1cc(C2CCN(Cc3c(OC)ccc(C(=O)O)c3OC)CC2)c2cccnc21 [Example 22, 2,4-dimethoxy-3-{4-[1-(2-methoxyethyl)-1H-pyrrolo[2,3-b]pyridin-3-yl]-piperidin-1-ylmethyl}-benzoic acid]",235,–
"COc1ccc(CN2CCC(c3cn(Cc4ccco4)c4ncccc34)CC2)cc1C(=O)O [Example 10, 5-[4-(1-furan-2-ylmethyl-1H-pyrrolo[2,3-b]pyridin-3-yl)piperidin-1-ylmethyl]-2methoxy-benzoic acid]",335,> 50
"O=C(O)c1cc(CN2CCC(c3cn(Cc4ccoc4)c4ncccc34)CC2)ccc1F [Example 45, 2-fluoro-5-[4-(1-furan-3-ylmethyl-1H-pyrrolo[2,3-b]pyridin-3-yl)-piperidin-1-ylmethyl]-benzoic acid]",255,–
"COc1ccc(C(=O)O)c(OCCN2CCC(c3cn(Cc4ccco4)c4ncccc34)CC2)c1 [Example 50, 2-{2-[4-(1-furan-2-ylmethyl-1H-pyrrolo[2,3-b]pyridin-3-yl)-piperidin-1-yl]-ethoxy}-4-methoxybenzoic acid]",48,–
"CCCCn1cc(C2CCN(Cc3ccc(OC)c(C(=O)O)c3)CC2)c2cccnc21 [Example 24, 5-[4-(1-butyl-1H-pyrrolo[2,3-b]pyridin-3-yl)piperidin-1-ylmethyl]-2-methoxybenzoic acid]",475,> 50
"O=C(O)c1ccccc1OCCN1CCC(c2cn(Cc3ccoc3)c3ncccc23)CC1 [Example 3, 2-{2-[4-(1-furan-3-ylmethyl-1H-pyrrolo[2,3-b]pyridin-3-yl)piperidine-1-yl]ethoxy}benzoic acid]",225,> 50
"COc1ccc(CN2CCC(c3cn(Cc4ccco4)c4cnccc34)CC2)cc1C(=O)O [Example 96, 5-[4-(1-furan-2-ylmethyl-1H-pyrrolo[2,3-c]pyridin-3-yl)-piperidin-1-ylmethyl]-2-methoxybenzoic acid]",805,–
CCOCCn1cc(C2CCN(CCOc3ccccc3C(=O)O)CC2)c2cccnc21 [Example 6],190,> 50
"COc1ccc(C(=O)O)c(OCCN2CCC(c3cn(Cc4ccoc4)c4ncccc34)CC2)c1 [Example 43, 2-{2-[4-(1-furan-3-ylmethyl-1H-pyrrolo[2,3-b]pyridin-3-yl)piperidin-1-yl]-ethoxy}-4-methoxybenzoic acid]",120,–
"CCCCn1cc(C2CCN(Cc3ccc(F)c(C(=O)O)c3)CC2)c2cccnc21 [Example 64, 5-[4-(1-butyl-1H-pyrrolo[2,3-b]pyridin-3-yl)-piperidin-1-ylmethyl]-2-fluorobenzoic acid]",380,–
"CCOCCn1cc(C2CCN(Cc3cccc(C(=O)O)c3)CC2)c2cccnc21 [Example 4, 3-{4-[1-(2-ethoxyethyl)-1H-pyrrolo[2,3-b]pyridin-3-yl]piperidin-1-ylmethyl}benzoic acid]",403,> 50
"COc1ccc(C(=O)O)c(OCCN2CCC(c3cn(Cc4ccoc4)c4cnccc34)CC2)c1 [Example 76, 2-{2-[4-(1-furan-3-ylmethyl-1H-pyrrolo[2,3-c]pyridin-3-yl)-piperidin-1-yl]-ethoxy}-4-methoxybenzoic acid]",675,–
"O=C(O)c1ccc(Cl)cc1OCCN1CCC(c2cn(Cc3ccc(Cl)s3)c3cnccc23)CC1 [Example 92, 4-chloro-2-(2-{4-[1-(5-chlorothiophen-2-ylmethyl)-1H-pyrrolo[2,3-c]pyridin-3-yl]-piperidin-1-yl}-ethoxy)-benzoic acid]",105,–
"COCCn1cc(C2CCN(CCOc3cccc(OC)c3C(=O)O)CC2)c2cccnc21 [Example 23, 2-methoxy-6-(2-{4-[1-(2-methoxyethyl)-1H-pyrrolo[2,3-b]pyridin-3-yl]-piperidin-1-yl}-ethoxy)benzoic acid]",275,–
"CCCCn1cc(C2CCN(Cc3cccc(C(=O)O)c3)CC2)c2cccnc21 [Example 26, 3-[4-(1-butyl-1H-pyrrolo[2,3-b]pyridin-3-yl)piperidin-1-ylmethyl]-benzoic acid]",275,–

SMILES,IC50 (histamine H1 receptor) [nM],inhibition in vivo at 3 mg/kg [1] [%]
"CCOCCn1cc(C2CCN(CCOc3c(OC)cccc3C(=O)O)CC2)c2cccnc21 [Example 37, 2-(2-{4-[1-(2-ethoxyethyl)-1H-pyrrolo[2,3-b]pyridin-3-yl]-piperidin-1-yl}-ethoxy)-3-methoxybenzoic acid]",155,–
"O=C(O)c1ccccc1OCCN1CCC(c2cn(Cc3cccs3)c3ncccc23)CC1 [Example 11, 2-{2-[4-(1-thiophen-2-ylmethyl-1H-pyrrolo[2,3-b]pyridin-3-yl)-piperidin-1-yl]-ethoxy}benzoic acid]",505,–
"O=C(O)c1cccc(CN2CCC(c3cn(CC4CC4)c4ncccc34)CC2)c1 [Example 28, 3-[4-(1-cyclopropylmethyl-1H-pyrrolo[2,3-b]pyridin-3-yl)-piperidin-1-ylmethyl]-benzoic acid]",520,–
"CCCCn1cc(C2CCN(CCOc3cc(Cl)ccc3C(=O)O)CC2)c2ccncc21 [Example 84, 2-{2-[4-(1-butyl-1H-pyrrolo[2,3-c]pyridin-3-yl)piperidin-1-yl]-ethoxy}-4-chlorobenzoic acid]",74,–
"CCCCn1cc(C2CCN(CCOc3ccccc3C(=O)O)CC2)c2cccnc21 [Example 25, 2-{2-[4-(1-butyl-1H-pyrrolo[2,3-b]pyridin-3-yl)piperidin-1-yl]-ethoxy}-benzoic acid]",235,> 50
"O=C(O)c1cccc(CN2CCC(c3cn(Cc4ccc(Cl)s4)c4ncccc34)CC2)c1 [Example 18, 3-{4-[1-(5-chlorothiophen-2-ylmethyl)-1H-pyrrolo[2,3-b]pyridin-3-yl]-piperidin-1-ylmethyl}-benzoic acid]",315,–
"O=C(O)c1ccccc1OCCN1CCC(c2cn(Cc3ccsc3)c3ncccc23)CC1 [Example 14, 2-{2-[4-(1-thiophen-3-ylmethyl-1H-pyrrolo[2,3-b]pyridin-3-yl)-piperidin-1-yl]-ethoxy}-benzoic acid]",510,–
"CCCCn1cc(C2CCN(CCOc3cc(OC)ccc3C(=O)O)CC2)c2cccnc21 [Example 61, 2-{2-[4-(1-butyl-1H-pyrrolo[2,3-b]pyridin-3-yl)piperidin-1-yl]-ethoxy}-4-methoxybenzoic acid]",100,> 50
"O=C(O)c1cccc(CN2CCC(c3cn(Cc4ccco4)c4ncccc34)CC2)c1 [Example 9, 3-[4-(1-furan-2-ylmethyl-1H-pyrrolo[2,3-b]pyridin-3-yl)piperidin-1-ylmethyl]-benzoic acid]",150,> 50
"CCCCn1cc(C2CCN(CCOc3ccccc3C(=O)O)CC2)c2ccncc21 [Example 81, 2-{2-[4-(1-butyl-1H-pyrrolo[2,3-c]pyridin-3-yl)-piperidin-1-yl]-ethoxy}-benzoic acid]",220,–
"CCOCCn1cc(C2CCN(CCOc3cc(Cl)ccc3C(=O)O)CC2)c2ccncc21 [Example 73, 4-chloro-2-(2-{4-[1-(2-ethoxyethyl)-1H-pyrrolo[2,3-c]pyridin-3-yl]-piperidin-1-yl}-ethoxy)-benzoic acid]",111,–
"COc1ccc(CN2CCC(c3cn(Cc4ccoc4)c4ncccc34)CC2)cc1C(=O)O [Example 7, 5-[4-(1-furan-3-ylmethyl-1H-pyrrolo[2,3-b]pyridin-3-yl)-piperidin-1-ylmethyl]-2-methoxybenzoic acid]",205,> 50
"COCCn1cc(C2CCN(Cc3cccc(C(=O)O)c3)CC2)c2cccnc21 [Example 1, 3-{4-[1-(2-methoxyethyl)-1H-pyrrolo[2,3-b]pyridin-3-yl]piperidin-1-ylmethyl}benzoic acid]",240,> 50
"O=C(O)c1ccccc1OCCN1CCC(c2cn(Cc3ccc(Cl)s3)c3ncccc23)CC1 [Example 17, 2-(2-{4-[1-(5-chlorothiophen-2-ylmethyl)-1H-pyrrolo[2,3-b]pyridin-3-yl]-piperidin-1-yl}-ethoxy)-benzoic acid]",265,–
"CCCCn1cc(C2CCN(CCOc3cc(Cl)ccc3C(=O)O)CC2)c2cccnc21 [Example 63, 2-{2-[4-(1-butyl-1H-pyrrolo[2,3-b]pyridin-3-yl)-piperidin-1-yl]-ethoxy}-4-chlorobenzoic acid]",110,–
"COc1cccc(C(=O)O)c1OCCN1CCC(c2cn(Cc3ccc(Cl)s3)c3ncccc23)CC1 [Example 54, 2-(2-{4-[1-(5-chlorothiophen-2-ylmethyl)-1H-pyrrolo[2,3-b]pyridin-3-yl]-piperidin-1-yl}-ethoxy)-3-methoxybenzoic acid]",695,–

# — patent US7622480B2, “Azaindolylpiperidine derivatives as antihistaminic and antiallergic agents” (Laboratorios Almirall S.A., priority 2002, dated 2009)
